Common to all, as to format: cell-based, Drosophila
One test concerns HSF. Description: HSF DNA binding activity, gel mobility shift assay (EMSA) with whole cell extracts and labeled HSE. The note with it: for optimal concentration for induction of HSF DNA binding: treated 60 minutes, no heat shock; for stimulation of HSF DNA binding: without cellular stress. Here is the method: FIG. 14. Induction of HSF DNA binding and hsp70 protein synthesis by ibuprofen and salicylic acid. The concentrations of ibuprofen and salicylic acid are shown as mM. Both DNA binding and Hsp70 protein synthesis follow the same optimal concentrations. The cells were treated for 60 minutes with the indicated drug and whole cell extracts prepared for analysis.
The effect of the KDs on DNA binding was first examined using the gel mobility shift assay. Briefly cells were treated with RNAi or transfected with the indicated DNA constructs and harvested four days later. Whole cell extracts were prepared and DNA binding carried out with a labeled heat shock element (HSE) double stranded oligonucleotide. Lanes 1 and 2 represent control cells, non-shocked and heat shocked, respectively. […] Lanes 3 and 4 contain extract derived from the Hsc3p KD cells.
Background: In EMSA bound probe runs differently from free probe, usually more slowly.

In test [1] the test system is Hsp70. Kind of test: Induction of Hsp70 protein synthesis in cultured cells. The note with it: for optimal concentration for induction of Hsp70 protein synthesis: treated 60 minutes, no heat shock; for stimulation of Hsp70 protein synthesis: without cellular stress. The protocol: FIG. 14. Induction of HSF DNA binding and hsp70 protein synthesis by ibuprofen and salicylic acid. The concentrations of ibuprofen and salicylic acid are shown as mM. Both DNA binding and Hsp70 protein synthesis follow the same optimal concentrations. The cells were treated for 60 minutes with the indicated drug and whole cell extracts prepared for analysis. […] The goal here is to activate HSF to produce adequate levels of Hsp70 that can provide neuroprotective functions to the human brain. To begin these studies, two common non-steroidal anti-inflammatory drugs (NSAIDs), ibuprofen and salicylic acid, were tested. These molecules have been previously shown to stimulate HSF DNA binding in mammalian and Drosophila cells. The findings presented here differ from those previously published. As reported here, both salicylic acid and ibuprofen can stimulate HSF DNA binding, Hsp70 transcription and Hsp70 protein synthesis. […] It is clear that both DNA binding and Hsp70 protein synthesis have identical optimums.

The subject of test [2] is Hsp70. Kind of test: Hsp70 transcription, primer-extension analysis of isolated RNA. The conditions noted are these: for stimulation of Hsp70 transcription: without cellular stress. The protocol:
FIG. 15. Time course for Hsp70 transcription induction by 3 mM salicylic acid. Cells were treated with 3 mM salicylic acid and RNA was isolated at the indicated times.
Control cells (lanes 1 and 2) show activation of Hsp70 transcription as a result of a ten-minute heat shock. […] Lanes 3 and 4 contain RNA from KD cells with RNAi against Hsc4p. […] When Hsc4p levels are reduced, HSF is able to bind DNA and activate transcription without heat shock.

Setting [3] is: Drosophila cultured cells, 60 minutes.

Molecules are shown by their SMILES.

`CC(C)Cc1ccc(C(C)C(=O)O)cc1` (stereo not shown) [ibuprofen]: the “optimal concentration for induction of HSF DNA binding” value with HSF (Drosophila cultured cells) was in the range of 3 to 10 mM. Moreover, the “stimulation of HSF DNA binding” value with HSF is listed as “can stimulate”. Besides, the “optimal concentration for induction of Hsp70 protein synthesis” value with Hsp70 [1] (Drosophila cultured cells) lay within 3 to 10 mM. In addition, the “stimulation of Hsp70 protein synthesis” value with Hsp70 [1] is reported as “can stimulate”. In the test on Hsp70 [2], the “stimulation of Hsp70 transcription” value is listed as “can stimulate”.

As for `O=C(O)c1ccccc1O` [salicylic acid], in the test on HSF (setting [3]), the “low concentration that still functions for HSF DNA binding” value was 1 mM. Moreover, the “optimal concentration for induction of HSF DNA binding” value in the test on HSF (Drosophila cultured cells) was “quite broad”. Further, the “stimulation of HSF DNA binding” value in the test on HSF is on record as “can stimulate”. Moreover, the “low concentration that still functions for Hsp70 protein synthesis” value in the test on Hsp70 [1] (setting [3]) was determined as 1 mM. The “optimal concentration for induction of Hsp70 protein synthesis” value in the test on Hsp70 [1] (Drosophila cultured cells) is reported as “quite broad”. Further, the “stimulation of Hsp70 protein synthesis” value in the test with Hsp70 [1] is given as “can stimulate”. Moreover, in the test with Hsp70 [2] (3 mM salicylic acid), the “time course of Hsp70 transcription induction” value is on record as “induced rapidly”. Also, the “stimulation of Hsp70 transcription” value in the test on Hsp70 [2] is recorded as “can stimulate”.

Source of the values: US20090075948A1, “COMPOSITIONS AND METHODS FOR REGULATING CELLULAR PROTECTION” (California Institute of Technology, priority 2007, published 2009).
